Assay results as given in patent US11116735B2, “Use of substituted benzylideneguanidine derivatives as synergists for polymyxin antibiotics” (GUANGZHOU INSIGHTER BIOTECHNOLOGY CO., LTD., priority 2015, dated 2021).
Values joined by “and” are separate entries in the source; they are usually repeats but may differ in a detail not shown here. Equal values may be shown once.

Legend:
E. coli 3Y-9 = experiment: MIC by doubling dilution, colistin sulfate-susceptible E. coli 3Y-9; type: cell-based, Escherichia coli; settings: E. coli 3Y-9, colistin sulfate-susceptible; substance alone; derivatives as hydrochlorides
E. coli 2S-19 = experiment: MIC by doubling dilution, colistin sulfate-susceptible E. coli 2S-19; type: cell-based, Escherichia coli; settings: E. coli 2S-19, colistin sulfate-susceptible; substance alone; derivatives as hydrochlorides
E. coli 5W-7 = experiment: MIC by doubling dilution, colistin sulfate-susceptible E. coli 5W-7; type: cell-based, Escherichia coli; settings: E. coli 5W-7, colistin sulfate-susceptible; substance alone; derivatives as hydrochlorides
E. coli 3B-24 = experiment: MIC by doubling dilution, colistin sulfate-susceptible E. coli 3B-24; type: cell-based, Escherichia coli; settings: E. coli 3B-24, colistin sulfate-susceptible; substance alone; derivatives as hydrochlorides
weanling piglets [1] = experiment: Synergy of derivatives and colistin sulfate in the feed for weanling piglets; type: in vivo, Duroc×Landrace×Large crossbred lean weanling piglets; settings: creep feed with only 20 ppm colistin sulfate (control group), ten days
Protocol: 90 28-day-aged Duroc×Landrace×Large crossbred lean weanling piglets similar in weight were divided into 9 groups, 10 piglets in each group. For each group, colistin sulfate and/or various substituted benzylideneguanidine derivatives were added into the antibiotic-free creep feed. The piglets were given ad libitum access to feed and water during the experiment. Weight gain, feed efficiency and diarrhea rate of each group within ten days were recorded.

weanling piglets [2] = experiment: Synergy of compound 3 and colistin sulfate in the feed for weanling piglets; type: in vivo, Duroc×Landrace×Large crossbred lean weanling piglets; settings: weanling piglets, only 20 ppm colistin sulfate in creep feed (Control 1, groups 4-6), ten days
Protocol: 120 28-day-aged Duroc×Landrace×Large crossbred lean weanling piglets similar in weight were divided into 12 groups, 10 piglets in each group. For each group, colistin sulfate and/or compound 3 were added into the antibiotic-free creep feed. The piglets were given ad libitum access to feed and water during the experiment. Weight gain, feed efficiency and diarrhea rate of each group within ten days were recorded.

weanling piglets [3] = experiment: Compound 3 in various dosages and colistin sulfate in the feed for weanling piglets; type: in vivo, Duroc×Landrace×Large crossbred lean weanling piglets; settings: weanling piglets, only 20 ppm colistin sulfate in creep feed (control group), ten days
Protocol: 90 28-day-aged Duroc×Landrace×Large crossbred lean weanling piglets similar in weight were divided into 9 groups, 10 piglets in each group. For each group, colistin sulfate and/or various dosages of compound 3 were added into the antibiotic-free creep feed. The piglets were given ad libitum access to feed and water during the experiment. Weight gain, feed efficiency and diarrhea rate of each group within ten days were recorded.

[4] = system: fast-growing yellow feather broilers; experiment: Combined application of compound 3 and colistin sulfate in chicken feed; type: in vivo; settings: broilers, 50 ppm colistin sulfate in feed, 28-day experiment
Protocol: 800 1-day-aged fast-growing yellow feather broilers were divided into 4 groups, 4 parallels in each group and 50 broilers in each parallel. For each group, colistin sulfate and/or compound 3 were added into the feed. The chicken were kept in cages and given ad libitum access to feed and water during a 28-day experiment. Synergy of compound 3 and colistin sulfate on the chicken in the weight gain and feed efficiency was observed from the result (see Table 10).

cherry valley ducks = experiment: Combined application of compound 3 and colistin sulfate in duck feed; type: in vivo; settings: 40 ppm colistin sulfate in feed, 21-day experiment
Protocol: 800 1-day-aged cherry valley ducks were divided into 4 groups according to Table 10, 4 parallels in each group and 50 ducks in each parallel. For each group, colistin sulfate and/or compound 3 were added into the feed. The ducks were kept in cages and given ad libitum access to feed and water during a 21-day experiment. Synergy of compound 3 and colistin sulfate on the ducks in the weight gain and feed efficiency was observed from the result (see Table 11).

[5] = system: colistin sulfate-susceptible Escherichia coli strains; experiment: MIC by doubling dilution, summary over colistin sulfate-susceptible strains; type: cell-based; settings: bound that characterises the tested susceptible E. coli strains
[6] = system: various colistin sulfate-resistant Gram-negative bacteria; experiment: MIC by doubling dilution, summary over resistant species; settings: bound that characterises the tested resistant strains
Protocol: (§1) The compound 3 in this embodiment was in the form of a hydrochloride, i.e., the experiments were carried out with a hydrochloride of compound 3.
(§2) In vitro minimum inhibitory concentrations of colistin sulfate against the strains where the cultures respectively comprised various concentrations of compound 3 were also measured.

E. coli 2G-7 = experiment: MIC by doubling dilution, colistin sulfate-resistant E. coli 2G-7; settings: E. coli 2G-7, colistin sulfate-resistant; substance alone; derivatives as hydrochlorides
Protocol: (§3) In vitro minimum inhibitory concentrations of colistin sulfate against the strains where the cultures respectively comprised 20.0 ppm of the substituted benzylideneguanidine derivatives were also measured.

E. coli 5F-1 [7] = experiment: MIC by doubling dilution, colistin sulfate-resistant E. coli 5F-1; settings: E. coli 5F-1, colistin sulfate-resistant; substance alone; derivatives as hydrochlorides
Protocol: as §3

E. coli 4D-6 = experiment: MIC by doubling dilution, colistin sulfate-resistant E. coli 4D-6; settings: E. coli 4D-6, colistin sulfate-resistant; substance alone; derivatives as hydrochlorides
Protocol: as §3

E. coli 3H-4 = experiment: MIC by doubling dilution, colistin sulfate-resistant E. coli 3H-4; settings: E. coli 3H-4, colistin sulfate-resistant; substance alone; derivatives as hydrochlorides
Protocol: as §3

[8] = system: colistin sulfate-resistant E. coli strains; experiment: MIC by doubling dilution, summary over colistin sulfate-resistant strains; settings: bound that characterises the tested resistant E. coli strains
Protocol: as §3

E. coli 5F-1 [9] = experiment: MIC, resistance reversal by various concentrations of compound 3, E. coli 5F-1; settings: colistin sulfate with 0 ppm compound 3, or compound 3 (hydrochloride) in the absence of colistin sulfate
Protocol: as §1, §2

Shigella sp. 2D89 = experiment: MIC, resistance reversal by various concentrations of compound 3, Shigella sp. 2D89; settings: colistin sulfate with 0 ppm compound 3, or compound 3 (hydrochloride) in the absence of colistin sulfate
Protocol: as §1, §2

P. aeruginosa E543 = experiment: MIC, resistance reversal by various concentrations of compound 3, P. aeruginosa E543; settings: colistin sulfate with 0 ppm compound 3, or compound 3 (hydrochloride) in the absence of colistin sulfate
Protocol: as §1, §2

Klebsiella sp. 4125 = experiment: MIC, resistance reversal by various concentrations of compound 3, Klebsiella sp. 4125; settings: colistin sulfate with 0 ppm compound 3, or compound 3 (hydrochloride) in the absence of colistin sulfate
Protocol: as §1, §2

colistin sulfate [reference compound] was tested. Which “In vitro minimum inhibitory concentration (MIC) of the substance alone” value (E. coli 3Y-9) did it give?
Its value is 2.0 ppm and 2.00 ppm.

And the “In vitro minimum inhibitory concentration (MIC) of the substance alone” value (E. coli 2S-19)?
Its value is 2.0 ppm and 2.00 ppm.

And the “In vitro minimum inhibitory concentration (MIC) of the substance alone” value (E. coli 5W-7)?
The value was 1.0 ppm and 1.00 ppm.

And the “In vitro minimum inhibitory concentration (MIC) of the substance alone” value (E. coli 3B-24)?
Its value is 2.0 ppm and 2.00 ppm.

And the “Average daily weight gain” value (weanling piglets [1])?
The value was 219 g.

What about the Diarrhea rate (weanling piglets [1]) of the same substance?
Its Diarrhea rate is 33%.

And the Feed conversion ratio (weanling piglets [1])?
The Feed conversion ratio was 1.649.

And the “Average daily weight gain” value (weanling piglets [2])?
The value was 215 g and 208 g and 217 g.

And the Diarrhea rate (weanling piglets [2])?
Its Diarrhea rate is 31% and 29% and 33%.

What about the Feed conversion ratio (weanling piglets [2]) of the same substance?
Its Feed conversion ratio is 1.654 and 1.598 and 1.623.

What about the “Average daily weight gain” value (weanling piglets [3]) of the same substance?
The value was 211 g.

And the Diarrhea rate (weanling piglets [3])?
Its Diarrhea rate is 33%.

And the Feed conversion ratio (weanling piglets [3])?
The Feed conversion ratio was 1.672.

What about the “Average daily weight gain” value [4] of the same substance?
Its value is 39.8 g.

What about the Feed conversion ratio [4] of the same substance?
Its Feed conversion ratio is 1.965.

And the Survival rate [4]?
Its Survival rate is 100%.

And the “Average daily weight gain” value (cherry valley ducks)?
Its value is 50.1 g.

And the Feed conversion ratio (cherry valley ducks)?
Its Feed conversion ratio is 1.945.

What about the Survival rate (cherry valley ducks) of the same substance?
The Survival rate was 100%.

And the “MIC value of colistin sulfate against the susceptible strains” value [5]?
Its value is “lower than 4.0 ppm”.

And the “MIC value of colistin sulfate against the resistant Gram-negative bacteria” value [6]?
The value was “higher than 4.0 ppm”.

What about the “In vitro minimum inhibitory concentration (MIC) of the substance alone” value (E. coli 2G-7) of the same substance?
The value was 64 ppm and 64.0 ppm.

What about the “In vitro minimum inhibitory concentration (MIC) of the substance alone” value (E. coli 5F-1 [7]) of the same substance?
Its value is 128 ppm and 128.0 ppm.

And the “In vitro minimum inhibitory concentration (MIC) of the substance alone” value (E. coli 4D-6)?
Its value is 256 ppm and 256.0 ppm.

And the “In vitro minimum inhibitory concentration (MIC) of the substance alone” value (E. coli 3H-4)?
The value was 64 ppm and 64.0 ppm.

What about the “MIC value of colistin sulfate against the resistant strains” value [8] of the same substance?
Its value is “higher than 4.0 ppm”.

What about the “In vitro MIC of the substance alone” value (E. coli 5F-1 [9]) of the same substance?
Its value is 128.00 ppm.

And the “In vitro MIC of the substance alone” value (Shigella sp. 2D89)?
The value was 32.00 ppm.

What about the “In vitro MIC of the substance alone” value (P. aeruginosa E543) of the same substance?
The value was 64.00 ppm.

What about the “In vitro MIC of the substance alone” value (Klebsiella sp. 4125) of the same substance?
Its value is 64.00 ppm.
